Values joined by “and” are separate entries in the source; they are usually repeats but may differ in a detail not shown here. Equal entries are not always repeated. Where two headings read alike, the source gives them in different places. Positions of bridges follow the written chain, without caps; N, C: chain ends. Residues, ends and D or L forms follow the SMILES beside them.
Columns and labels:
SA AgrC-IV = SA AgrC-IV (Staphylococcus aureus, UniProt Q309Z2); experiment: β-Lactamase assay, reporter strain RN10829 (P2-agrA:P3-blaZ) with pagrC-IV; assay type: cell-based
Chain of SA AgrC-IV (Q309Z2 entry or part of it): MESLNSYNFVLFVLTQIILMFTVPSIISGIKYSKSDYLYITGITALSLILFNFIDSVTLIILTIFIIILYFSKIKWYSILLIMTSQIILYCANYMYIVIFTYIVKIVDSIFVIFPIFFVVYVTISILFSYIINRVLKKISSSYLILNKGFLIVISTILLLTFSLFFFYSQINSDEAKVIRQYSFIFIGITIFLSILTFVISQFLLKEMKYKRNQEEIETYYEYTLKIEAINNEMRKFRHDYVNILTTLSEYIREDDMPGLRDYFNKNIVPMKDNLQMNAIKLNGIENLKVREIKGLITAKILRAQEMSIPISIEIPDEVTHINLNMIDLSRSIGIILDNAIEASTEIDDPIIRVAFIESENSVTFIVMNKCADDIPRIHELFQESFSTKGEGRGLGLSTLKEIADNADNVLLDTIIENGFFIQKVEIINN
Procedure, shortened: (§1)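 S. aureus RN10829 P2-agrA:P3-blaZ reporter carrying a plasmid for the matching wild-type AgrC, grown in TSB to OD600 0.35–0.40. Cells met peptides (10 μM–10 pM) plus cognate AIP at 100 nM for 1 h at 37°C, then nitrocefin (33.3 μg/mL) turnover was read at OD486 for 10 min; IC50 from linear rates.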

S. aureus (SA) agr-IV = conditions: fluorescence, cited from earlier work
SA AgrC-III = SA AgrC-III (Staphylococcus aureus, UniProt O33590); experiment: β-Lactamase assay, reporter strain RN10829 (P2-agrA:P3-blaZ) with pagrC-III; assay type: cell-based
Chain of SA AgrC-III (O33590 entry or part of it): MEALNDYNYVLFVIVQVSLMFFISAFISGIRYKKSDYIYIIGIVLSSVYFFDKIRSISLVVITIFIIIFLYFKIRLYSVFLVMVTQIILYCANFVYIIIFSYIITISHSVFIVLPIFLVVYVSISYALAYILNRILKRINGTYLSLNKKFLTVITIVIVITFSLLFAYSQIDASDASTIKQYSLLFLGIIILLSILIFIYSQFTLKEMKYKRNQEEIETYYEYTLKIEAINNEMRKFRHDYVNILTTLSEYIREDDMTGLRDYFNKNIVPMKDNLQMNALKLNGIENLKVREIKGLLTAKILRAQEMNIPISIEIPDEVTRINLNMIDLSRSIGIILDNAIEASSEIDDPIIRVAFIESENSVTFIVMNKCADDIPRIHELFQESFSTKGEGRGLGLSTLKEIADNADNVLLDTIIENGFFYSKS
Procedure, shortened: as §1

S. aureus agr-I = S. aureus agr-I (Staphylococcus aureus, UniProt O07911); experiment: Fluorescence reporter assay for agr interference, screening and IC50 (AH1677, P3-YFP); assay type: cell-based
Chain of S. aureus agr-I (O07911 entry or part of it): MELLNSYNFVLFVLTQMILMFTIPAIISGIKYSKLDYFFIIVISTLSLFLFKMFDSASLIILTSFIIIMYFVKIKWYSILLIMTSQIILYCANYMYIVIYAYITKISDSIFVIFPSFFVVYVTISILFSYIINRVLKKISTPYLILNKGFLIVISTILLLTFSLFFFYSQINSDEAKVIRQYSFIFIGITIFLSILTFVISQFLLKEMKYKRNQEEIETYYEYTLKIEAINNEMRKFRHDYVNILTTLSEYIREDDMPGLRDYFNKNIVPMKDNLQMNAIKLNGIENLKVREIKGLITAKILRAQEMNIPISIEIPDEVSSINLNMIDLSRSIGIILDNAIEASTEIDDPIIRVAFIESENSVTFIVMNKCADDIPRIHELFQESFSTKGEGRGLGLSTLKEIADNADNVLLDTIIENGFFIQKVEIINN
Method: Peptides were evaluated for the ability to interfere with agr-mediated quorum sensing in S. aureus (AH1677, AH430, AH1747, and AH1872 for agr-I–IV, respectively) ([40]) using reporter strains expressing yellow fluorescent protein (YFP) upon agr activation. Interference with agr-mediated quorum sensing in S. epidermidis (AH3408, AH3623, and AH3409 for agr-I–III, respectively) ([45]), and S. lugdunensis (AH4031 for agr-I) ([37]) was evaluated using reporter strains expressing superfolder green fluorescent protein (sGFP) upon agr activation. Overnight cultures of the reporter strains were grown in TSB medium containing chloramphenicol (CAM, 10 μg/mL for S. aureus) or erythromycin (ERM, 10 μg/mL of S. epidermidis and S. lugdunensis) and diluted 1:100 in fresh TSB medium containing the same antibiotic. Assays were performed in sterile black 96-well plates with a clear bottom. […] DMSO stock solutions of peptides (1 mM) were diluted in TSB media and added (15 μL) in technical triplicate to the 96-well plate, followed by diluted bacterial overnight cultures (135 μL). […] Wells containing 150 μL TSB medium were used to measure background fluorescence. The 96-well plates were incubated in a humidified incubator at 37°C shaking at 1,000 rpm for 22–24 h and fluorescence (for GFP: excitation 479 nm, emission 520 nm; for YFP: excitation 500 nm, emission 541 nm; automatic gain), and OD600 values were subsequently measured using a plate reader. Background fluorescence was subtracted from all wells and further normalized to the corresponding OD600 value of the respective wells. The average fluorescence of control wells was used as a relative measure for 100% activation of the agr-circuit, and bar graphs were generated using GraphPad Prism 10.4 software. All assays were performed in at least a biological duplicate.
Overnight cultures of the reporter strains were grown in TSB medium containing chloramphenicol (CAM, 10 μg/mL for S. aureus) or erythromycin (ERM, 10 μg/mL of S. epidermidis and S. lugdunensis) and diluted 1:100 in fresh TSB medium containing the same antibiotic. Assays were performed in sterile black 96-well plates with clear bottoms. Peptide solutions (15 μL) in 1:5 serial dilutions from DMSO stock solutions (1 mM) in TSB medium were added to the 96-well plate in technical duplicate followed by diluted bacterial overnight cultures (135 μL). […] Wells containing 150 μL TSB medium were used to measure background fluorescence. The 96-well plates were incubated in a humidified incubator at 37°C shaking at 1,000 rpm for 22–24 h and fluorescence (for GFP: excitation 479 nm, emission 520 nm; for YFP: excitation 500 nm, emission 541 nm; automatic gain), and OD600 values were subsequently measured using a plate reader. Background fluorescence was subtracted from all wells and further normalized to the corresponding OD600 value of the respective wells. The average fluorescence of control wells was used as a relative measure for 100% activation of the agr-circuit. Relative agr activity was plotted to obtain IC50 values by non-linear regression with variable slope using GraphPad Prism 10.4 software. All assays were performed in biological triplicate.

S. aureus (SA) agr-II [1] = conditions: fluorescence, cited from earlier work
S. aureus (SA) agr-I = conditions: b-lactamase, cited from earlier work
S. aureus (SA) agr-III = tested on: S. aureus (SA) agr-III; design: method as in ref (5) (a number printed in a supplementary file, which may have a reference list of its own: not looked up in the article's list); conditions: hemolysis; ref (5); cited from earlier work
[2] = tested on: S. epidermidis (SE) agr-I; conditions: fluorescence, ref (11), cited from earlier work
SA AgrC-I = SA AgrC-I (Staphylococcus aureus, UniProt O07911)
Chain of SA AgrC-I (O07911 entry or part of it): as above

S. aureus (SA) agr-II [3] = tested on: S. aureus (SA) agr-II; design: method as in ref (5) (a number printed in a supplementary file, which may have a reference list of its own: not looked up in the article's list); conditions: hemolysis; ref (5); cited from earlier work

Compound | IC50 (SA AgrC-IV) [nM] | IC50 (S. aureus (SA) agr-IV; ref (17)) [nM] | IC50 (SA AgrC-III) [nM] | IC50 (S. aureus agr-I) [nM] | IC50 (S. aureus (SA) agr-II [1]; ref (5)) [nM] | IC50 (S. aureus (SA) agr-III) [nM] | IC50 (S. aureus (SA) agr-II [3]) [nM] | IC50 (S. aureus (SA) agr-II [1]; ref (17)) [nM] | also measured
NCCCC[C@H](N)C(=O)N[C@@H](Cc1ccc(O)cc1)C(=O)N[C@@H](Cc1ccc(O)cc1)C(=O)N1CCC[C@H]1C(=O)N[C@H]1CSC(=O)[C@H](Cc2ccccc2)NC(=O)[C@H](Cc2ccc(O)cc2)NC(=O)CNC(=O)[C@H](Cc2c[nH]c3ccccc23)NC1=O [compound 33, S. simulans AIP-II] (H-KYYPCWGYF; thioester 5-C) | 273 ± 26 | 40 | 198 ± 33 | 0.45 |  |  |  |  | QS interaction in words (inhibition / activation), S. aureus agr-I (S. aureus agr-I; fluorescent reporter strain, peptides tested at 1000, 50, 2.5, 0.125 nM or in dose-response): inhibited
S. aureus AIP-III D4A [compound 57, reference compound] |  |  |  |  | 0.43 | 0.16 | 0.06 |  | IC50 (S. aureus (SA) agr-IV; ref (5)): 0.035 nM; IC50 (S. aureus (SA) agr-I; ref (8)): 0.16 ± 0.01 nM; inhibition at 10 µM, SE agr-I ([2]; at 10 µM): ~ 25%; IC50 (SA AgrC-I; 100 nM cognate AIP; ± SEM; -b = no inhibition recorded at the highest AIP concentration tested; determined previously; ref (1); read-out: IC50, SA AgrC-I, b-lactamase assay; cited from earlier work): 3.3 ± 0.7 nM
NCCCC[C@H](N)C(=O)N[C@@H](Cc1ccc(O)cc1)C(=O)N[C@@H](CC(N)=O)C(=O)N1CCC[C@H]1C(=O)N[C@H]1CSC(=O)[C@H](Cc2ccccc2)NC(=O)[C@H](Cc2ccc(O)cc2)NC(=O)CNC(=O)[C@H](Cc2c[nH]c3ccccc23)NC1=O [compound 34, S. simulans AIP-III] (H-KYNPCWGYF; thioester 5-C) | 351 ± 60 | 48 | 103 ± 5 | 0.18 ± 0.03 |  |  |  | 6 | 
CC(C)C[C@@H]1NC(=O)[C@@H](NC(=O)[C@@H]2CCCN2C(=O)[C@H](CC(N)=O)NC(=O)[C@H](Cc2ccc(O)cc2)NC(=O)[C@@H](N)CCCCN)CSC(=O)[C@H](CC(C)C)NC(=O)[C@H](Cc2ccccc2)NC(=O)CNC1=O [compound 32, S. simulans AIP-I] (H-KYNPCLGFL; thioester 5-C; N-terminus assumed) |  | 23 |  | 0.34 ± 0.02 |  |  |  | 1.1 | IC50 (SA AgrC-I; read-out: IC50, SA AgrC-I, b-lactamase assay; 100 nM cognate AIP; ± SEM; -b = no inhibition recorded at the highest AIP concentration tested; determined previously; ref (1); cited from earlier work): 8.6 ± 0.5 nM
CC[C@H](C)[C@@H]1NC(=O)[C@H](Cc2ccccc2)NC(=O)[C@H](CC(=O)O)NC(=O)[C@@H](NC(=O)[C@@H](NC(=O)[C@H](CO)NC(=O)[C@@H](N)Cc2ccc(O)cc2)[C@@H](C)O)CSC(=O)[C@H](CCSC)NC1=O [compound 1, S. aureus AIP-I] (H-YSTCDFIM; thioester 4-C) |  |  |  |  | 8 | 6.12 | 3.34 |  | EC50 (S. aureus (SA) agr-I; ref (3)): 40 nM and 23 nM; EC50 (S. aureus (SA) agr-I; ref (4)): 28 nM; EC50 (S. aureus (SA) agr-I; ref (6)): 11 nM; EC50 (S. aureus (SA) agr-I; ref (7)): 3.21 nM; inhibition at 1000 nM, SE agr-I ([2]; at 1000 nM): no inhibition; EC50 (SA AgrC-I; ± SEM; determined previously; ref (1); read-out: EC50, SA AgrC-I, b-lactamase assay; cited from earlier work): 5.4 ± 0.5 nM
